According to patent US20240344128A1, “IDENTIFICATION AND ELIMINATION OF DAMAGED AND/OR SENESCENT CELLS” (FUNDACIÓN DEL SECTOR PÜBLICO ESTATAL CENTRO NACIONAL DE …, priority 2017, published 2024):

Key:
PD-L2 mRNA [1] = test: PD-L1 and PD-L2 mRNA by quantitative RT-PCR in mouse cell lines after 48 hours of genotoxic drugs; assay type: cell-based; details: C2C12, HcMel3 and HcMel13 cells
Method: C2C12, HcMel3 and HcMel12 (FIG. 3) were treated with 12×10^−3 units/ml bleomycin or doxorubicin 500 nM (C2C12) or 167 nM (HcMel3 and HcMel12) for 48 hours. Total RNA was isolated using TRI Reagent (Sigma-Aldrich #T9424) according to the manufacturer's instructions.
(§1) The isolated RNA was quantified using a nanodrop machine NanoVue (GE Healthcare). cDNA synthesis was performed with 2-7 μg of total RNA using the “iScript Advanced cDNA Synthesis kit” from BIO-RAD (#1725037). Quantitative real-time PCR was carried out with diluted cDNA (1:10) and “GoTaq qPCR Master Mix” (Promega A6002). Reactions were performed in triplicate in a 15 μl volume reaction mix prepared as follow: 7.5 μl 2X GoTaq qPCR Master Mix; 0.6 μl of pre-mixed primers (10 μM forward primer and 10 μM reverse primer); 1.9 μl nuclease-free water and 5 μl template cDNA (previously diluted 1:10).
The qRT-PCR reaction was performed on a 7500 Fast Real-Time PCR System (Applied Biosystems) using “MicroAmp Fast Optical 96-well reaction plate with barcode” (Thermo Fisher #4346906) and “MicroAmp Optical adhesive film” (Thermo Fisher #4311971). The reaction consisted in two holding stages (50° C. for 2:00 min and 95° C. for 10:00 min) and 40 amplification reactions (95° C. for 00:15 min/60° C. for 01:00 min/72° C. for 00:30 min) followed by a Melt Curve Stage. […]

senescent cells = details: cited from earlier work; for elimination of senescent cells: literature reports
[2] = system: SK-Mel-103, UT-SCC-38 and UT-SCC-42B cells; test: SA-β gal / senescent response in human tumor cell lines; assay type: cell-based; details: SK-Mel-103 cells, 7 days
Method: SK-Mel-103, UT-SCC-38 and UT-SCC-42B the cell lines were maintained in DMEM (Gibco) supplemented with 10% fetal bovine serum (Gibco) with antimycotic-antibiotic (Gibco), and incubated in 20% O2 sand 5% CO2 at 37° C. SK-Mel-103 and UT-SCC-42B cells were split 1:10 every 3-4 days. UT-SCC-38 were split 1:3 every 3-4 days.
Eight days before the assay 20.000 SK-Mel-103 cells and 40.000 UT-SCC-38 and UT-SCC-42B cells were seeded into 6 well tissue culture plates (Falcon). The next day cells were treated with 2 μM Palbociclib. SK-Mel-103 cells were also treated with 10 nM Doxorubicin, 1 μM Nutlin or 6×10^−3 units/ml Bleomycin. All the cells were incubated in the presence of the senescence-inducing agents for at least 7 days without changing the media. Control cells were seeded in 6 well plates 24-48 hours prior the SA-β gal assay.
SA-β galactosidase activity was assessed with the β-Galactosidase Staining Kit from Cell Signaling (#9860) following the manufactured instructions with one single variation: the pH of the “Staining Solution” (supplemented with buffers A and B and X-gal) was carefully adjusted to 6.

PD-L2 mRNA [3] = test: PD-L1 and PD-L2 mRNA by quantitative RT-PCR in human tumor cell lines; assay type: cell-based; details: SK-Mel-103 cells, 7 days
Method: Treated cells were not further split and their media was not changed for the duration of the treatment. Control cells were split every 3-4 days as previously described. One week after the start of the treatment, total RNA was isolated from control and treated cells with TRI Reagent (Sigma-Aldrich #T9424) following the manufacturer instructions. The isolated RNA was quantified using a nanodrop machine NanoVue (GE Healthcare). cDNA synthesis was performed with 2-7 μg of total RNA using the “iScript Advanced cDNA Synthesis kit” from BIO-RAD (#1725037). Quantitative real-time PCR was carried out with diluted cDNA (1:10) and “GoTaq qPCR Master Mix” (Promega A6002). Reactions were performed in triplicate in a 15 μl volume reaction mix prepared as follow: 7.5 μl 2X GoTaq qPCR Master Mix; 0.6 μl of pre-mixed primers (10 μM forward primer and 10 μM reverse primer); 1.9 μl nuclease-free water and 5 μl template cDNA (previously diluted 1:10). The qRT-PCR reaction was performed on a 7500 Fast Real-Time PCR System (Applied Biosystems) using “MicroAmp Fast Optical 96-well reaction plate with barcode” (Thermo Fisher #4346906) and “MicroAmp Optical adhesive film” (Thermo Fisher #4311971). […]

SK-Mel-103 cells = test: 53BP1 immunofluorescence (DNA double-strand breaks); assay type: cell-based, human; details: 7 days
Method: SK-Mel-103 cells were seeded at 50% confluency on round 12 mm diameter coverslips (Marienfeld #0111520) previously placed inside 24 well plates. The following day, cells were treated with the senescence-inducing agents: 2 μM Palbociclib, […], 1 μM Nutlin and 6×10^−3 units/ml Bleomycin. Treated cells were not further split and their media was not changed for the duration of the treatment (7 days). Control cells were seeded similarly to treated, cells 24-48 hours prior the beginning of the procedure. Seven days after addition of the senescence-inducing agents, control and treated cells were washed with 1×PBS and Fixed on 2% paraformaldehyde-PBS for 10 minutes. The cells were then permeabilized with 0.25% Triton-PBS for 5 minutes, washed twice with 1×PBS and blocked with 5% BSA-PBS for 30 minutes. Next, the cells were incubated for 30 minutes with anti-53BP1 antibody (Abcam #ab172580) previously diluted 1:100 in blocking buffer (5% BSA-PBS), washed 3 times for 10 minutes with 1X PBS and incubated in the dark for 30 additional minutes with the secondary antibody: goat anti-rabbit Alexa Fluor 546 (ThermoFisher #A-11010) diluted 1:400 in blocking buffer. Finally, the cells were washed again 3 times for 10 minutes with 1×PBS and incubated with DAPI (Sigma #D9542) 300 nM in 1×PBS for 10 minutes. All the incubations and washed were performed at room temperature in 24 well plates. […]

PD-L2 mRNA [4] = test: PD-L2 mRNA in mouse melanoma cell lines B16F1 and B16F10; assay type: cell-based; details: B16F1 and B16F10 cells; data not shown
lungs = test: Bleomycin-induced lung fibrosis in C57BL6 mice; assay type: in vivo, mouse; details: single intratracheal dose, 14 days
Method: SA-β galactosidase activity was assessed in whole mount lungs (FIG. 5A) and xenografts (FIG. 6B) using the Senescence β-Galactosidase Staining Kit (Cell Signaling #9860). Lungs were fixed for 45 minutes with a solution containing 2% formaldehyde and 0.2% glutaraldehyde in PBS for 45 minutes and washed three times with PBS. Fixed tissues were subsequently stained overnight (16 hours) with X-gal staining solution (adjusted to pH 6.0).
For gene expression analysis lungs were isolated and embedded in optimal cutting temperature (OCT) compound (Leica Biosystems). To obtain total RNA of OCT embedded tissue samples, 10 cryostat sections of 10 μm thickness were cut and excess OCT were removed. Cryosections were lysed in TRI Reagent (Sigma-Aldrich #T9424), pooled and processed according to manufacturer's instructions. cDNA was synthesized using 2 μg of total RNA. cDNA synthesis and RT-qPCR were performed as previously described. The Ct values of the genes of interest were averaged and normalized to the housekeeping gene Gapdh.
Lung fibrosis was induced in C57BL6 mice (ENVIGO) by intratracheal delivery of a single dose of bleomycin (1.5 U/kg) or vehicle (PBS). 14 days after intratracheal injection, lung samples of vehicle (control) or bleomycin (fibrotic)-treated mice were collected for the analysis of SA-β gal activity and gene expression.

PD-L2 mRNA [5] = test: Doxorubicin-induced PD-L2 mRNA in C2C12 cells with enzymatic inhibitors; assay type: cell-based, mouse; details: 500 nM doxorubicin, 48 hours
Method: C2C12 cells (FIG. 9) were treated with 500 nM doxorubicin for 48 hours in the presence or absence of the following inhibitors at the indicated concentrations: IKKi (50 μM), PIMi (1 μM), rotenone (1 μM), JAKi (3 μM), rapamycin (50 nM) and metformin (5 mM) or cultured in pyruvate-depleted media (FIG. 9A). In addition, C2C12 cells were incubated for 6 hours in the presence or absence of TLRs agonists (Mouse TLR1-9 Agonist kit. Invivogen): TLR1/2 agonist (Pam3CSK4, 300 ng/ml), TLR2 agonist (HKLM, 10^8 cells/ml), TLR3 agonist (Poly (I:C) HMW and Poly (I:C) LMW, 10 μg/ml), TLR4 agonist (LPS-EK, 10 μg/ml), TRL5 agonist (FLA-ST, 1 μg/ml), TRL6/2 agonist (FSL-1, 100 ng/ml), TRL7 agonist (ssRNA40, 5 μg/ml) and TLR9 agonist (ODN1826, 5 μM). Total RNA was isolated using TRI Reagent (Sigma-Aldrich #T9424) according to the manufacturer's instructions.
as §1
The qRT-PCR reaction was performed on a 7500 Fast Real-Time PCR System (Applied Biosystems) using “MicroAmp Fast Optical 96-well reaction plate with barcode” (Thermo Fisher #4346906) and “MicroAmp Optical adhesive film” (Thermo Fisher #4311971). The reaction consisted in two holding stages (50° C. for 2:00 min and 95° C. for 10:00 min) and 40 amplification reactions (95° C. for 00:15 min/60° C. for 01:00 min/72° C. for 00:30 min) followed by a Melt Curve Stage.
The Ct values of the genes of interest were averaged and normalized to the housekeeping gene β-actin. For each cell line and condition at least two independent experiments were performed.

COc1cccc2c1C(=O)c1c(O)c3c(c(O)c1C2=O)C[C@@](O)(C(=O)CO)C[C@@H]3O[C@H]1C[C@H](N)[C@H](O)[C@H](C)O1 [doxorubicin, Doxorubicin]
PD-L2 mRNA (PD-L2 mRNA [1]): dramatic increase in PD-L2 mRNA

CN(C)CC[C@H](CSc1ccccc1)Nc1ccc(S(=O)(=O)NC(=O)c2ccc(N3CCN(Cc4ccccc4-c4ccc(Cl)cc4)CC3)cc2)cc1[N+](=O)[O-] [ABT-737]
elimination of senescent cells (senescent cells): selectively eliminate senescent cells

Bleomycin
induction of senescence [2]: induce senescence in the SK-Mel-103 cells | PD-L2 mRNA levels (PD-L2 mRNA [3]): had a similar effect on PD-L2 mRNA levels | DNA damage (53BP1 foci) (SK-Mel-103 cells): exhibited nuclear 53-BP1 foci | PD-L2 mRNA (PD-L2 mRNA [4]): PD-L2 mRNA up-regulation | PD-L2 mRNA (PD-L2 mRNA [1]): dramatic increase in PD-L2 mRNA | senescent cells (SA-β galactosidase positive staining) in whole fibrotic lungs (lungs): accumulation of senescent cells | PD-L2 and PD-L1 mRNA in fibrotic organs (lungs; lung): significant and specific up-regulation of PD-L2 mRNA, but not of PD-L1 mRNA

C=C(C)[C@H]1Cc2c(ccc3c2O[C@@H]2COc4cc(OC)c(OC)cc4[C@@H]2C3=O)O1 [rotenone]
PD-L2 induction (PD-L2 mRNA [5]): prevented PD-L2 induction

Fc1cc(-c2cccc3ncc(-c4cnn(C5CCNCC5)c4)nc23)cc(F)c1CN1CCOCC1 [JAK inhibitor, NVP-BSK805]
PD-L2 induction (PD-L2 mRNA [5]): prevented PD-L2 induction

Nutlin
induction of senescence [2]: induce senescence in the SK-Mel-103 cells | PD-L2 mRNA levels (PD-L2 mRNA [3]): had a similar effect on PD-L2 mRNA levels | DNA damage (53BP1 foci) (SK-Mel-103 cells): absence of 53BP1 foci in the chromatin

O=c1c(O)c(-c2ccc(O)c(O)c2)oc2cc(O)cc(O)c12 [Quercetin]
number of damaged and/or senescent cells (senescent cells; Dasatinib and Quercetin used in combination, aged, progeroid and irradiation-exposed mice): reduced the number of damaged and/or senescent cells

CN(C)C(=N)N=C(N)N [metformin]
PD-L2 induction (PD-L2 mRNA [5]): prevented PD-L2 induction

CC1(C)CCC(c2ccc(Cl)cc2)=C(CN2CCN(c3ccc(C(=O)NS(=O)(=O)c4ccc(N[C@H](CCN5CCOCC5)CSc5ccccc5)c(S(=O)(=O)C(F)(F)F)c4)cc3)CC2)C1 [Navitoclax]
elimination of senescent cells (senescent cells): efficiently eliminate senescent cells in vitro and in vivo

Cc1ccc(S(=O)(=O)/C=C/C#N)cc1 [NFkB inhibitor, BAY 11-7082]
PD-L2 induction (PD-L2 mRNA [5]): prevented PD-L2 induction
